A short description of data set [1]: Aniline structural alert.
Data set [2] is described as follows: GSH Incubation Assay. It is filed as in vitro ADME. The following applies: incubation in human liver microsomes in the presence of GSH. (Liver microsomes are vesicles of endoplasmic reticulum, rich in cytochrome P450 enzymes.)
In data set [3] the target is BACE1 (Homo sapiens (Human), UniProt P56817). Nature of the data set: BACE1 Cell-Free Assay (fluorescence polarization). Type of data set: biochemical. (Fluorescence polarisation rises when a labelled molecule tumbles more slowly, as on binding a larger partner.)
Chain of BACE1 (P56817 46-457): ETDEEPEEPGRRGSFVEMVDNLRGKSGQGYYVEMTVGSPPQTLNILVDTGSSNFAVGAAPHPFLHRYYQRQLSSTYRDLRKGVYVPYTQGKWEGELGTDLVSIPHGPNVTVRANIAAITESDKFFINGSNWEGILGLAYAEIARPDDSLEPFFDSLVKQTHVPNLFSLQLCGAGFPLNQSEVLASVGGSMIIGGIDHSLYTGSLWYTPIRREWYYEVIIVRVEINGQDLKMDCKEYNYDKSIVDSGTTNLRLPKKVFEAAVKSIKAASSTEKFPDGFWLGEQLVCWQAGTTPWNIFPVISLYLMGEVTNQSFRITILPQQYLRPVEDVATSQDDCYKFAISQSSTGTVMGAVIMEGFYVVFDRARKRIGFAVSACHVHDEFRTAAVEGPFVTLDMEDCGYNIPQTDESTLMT
Data set [4] relates to sAPPβ, the primary cleavage product of BACE1, in H4 human neuroglioma cells over-expressing the wild-type human APP695. Nature of the data set: sAPPβ Whole-Cell Assay (WCA). Type of data set: cell-based. The following applies: 18 h. As to the method: sAPPβ Whole-Cell Assay (WCA):
sAPPβ, the primary cleavage product of BACE1, was determined in H4 human neuroglioma cells over-expressing the wild-type human APP695. […] The colorimetric reaction was read by an EnVision (PerkinElmer) plate-reader.

In data set [5] the target is human BACE2 (Homo sapiens (Human), UniProt Q9Y5Z0). As to the kind of experiment: BACE2 binding assay (SPA). The following applies: ratio of IC50 from BACE2 and BACE1 binding assays, pH 6.0. The source says: BACE2/BACE1 Binding Ratio:
The BACE1 and BACE2 binding assays measured beta-site amyloid precursor protein-cleaving enzyme (BACE) binding as a decrease in the counts of radioligand bound in a scintillation proximity assay (SPA). Utilizing a radiolabeled small molecule BACE active site binding inhibitor and crude HEK cell membrane preparations over-expressing full length BACE1 or BACE2, the binding of enzyme by test compound was monitored as a reduction of specific counts bound at pH 6.0. Full length human BACE1 or BACE2 over-expressed in HEK cells was prepared by Pfizer scientists. Frozen stock cell paste was reacted in 50 mM sodium acetate buffer (pH=6.0) containing 3H-(4aR,6R,8aS)-8a-(2,4-difluorophenyl)-6-(1-methyl-1H-pyrazol-4-yl)-4,4a,5,6,8,8a-hexahydropyrano[3,4-d][1,3]thiazin-2-amine ligand, SPA bead and 60 μM to 600 pM of test compound in an assay volume of 27 uL. The compound plate also contained positive (BACE inhibitor) and negative (DMSO) control wells. The binding was carried out at room temperature for 30 minutes and then the plates were read on a TriLux Microbeta reader to determine the number of counts bound.

Data set [6] can be described thus: HLM Clint (clearance in human liver microsomes). It is filed as in vitro ADME. The conditions noted are these: for CLint scaled: human.
Data set [7] concerns the target P-glycoprotein (MDR1-transfected MDCK cell line) (Homo sapiens (Human), UniProt P08183). As to the kind of experiment: Pgp Liability MDR1 Er. Type of data set: in vitro ADME. The following applies: Papp BA/AB. The source says: (§1) MDR1 Efflux Ratio (MDR Er) from MDR1-transfected MDCK line cell line represents the ratio of permeability, Papp BA/AB. Procedure utilized from (Feng, B.; Mills, J. B.; Davidson, R. E.; Mireles, R. J.; Janiszewski, J. S.; Troutman, M. D.; de Morais, S. M. In vitro P-glycoprotein assays to predict the in vivo interactions of P-glycoprotein with drugs in the central nervous system. Drug Metab. Dispos. 2008, 36, 268-275.

Data set [8] can be described thus: pKa. Type of data set: physicochemical. The following applies: Measurement determined at Analyza.
Data set [9] concerns the target hERG channel (Homo sapiens (Human), UniProt Q12809). Nature of the data set: hERG Patch Clamp Assay. Type of data set: cell-based. Here is the method: After a ˜30 minute recovery period, experiments were initiated.
hERG Potassium Channel Current Recordings and Data Analysis:
The intracellular recording saline was composed of (in […]): 70 KF, 60 KCl, 15 NaCl, 5 EGTA, 5 HEPES, and adjusted to pH 7.2±0.1 with KOH. […] Test pulses were delivered at a frequency of 0.25 Hz. Up to 4 different concentrations were studied on each cell, each exposure lasting 5 minutes or until steady-state effects were observed. […] Using Sophion Qpatch Assay Software, the amplitude of the peak outward hERG current upon repolarizing ramp was measured. Current amplitude was determined by taking the average of the last 5 current peaks under each treatment condition. […] When possible, a concentration-response curve was plotted and the data were fitted using Qpatch software to determine an IC50. The P<0.05 was considered statistically significant.
For orientation: hERG is a cardiac potassium channel; its block is linked to QT prolongation.

Data set [10] has as its target CYP2D6 (Homo sapiens (Human), UniProt P10635). Nature of the data set: General Multi-Point Cocktail DDI IC50 Assay. As to the method:
General Multi-Point Cocktail DDI IC50 Assay Conditions:
The incubation volume is 0.1 mL, utilizing a 384-well plate format. […] Substrate concentrations are near Km values that had been previously determined and incubation times are selected based on determinations of reaction velocity linearity. […] Samples are directly injected on an HPLC/MS/MS system. A Biomek FX workstation is used for liquid handling and sample incubation.

A short description of data set [11]: GSH Incubation Assay. Type of data set: in vitro ADME. The following applies: for Observed GSH adducts: Incubations with glutathione (50 mM) at 37° C. in buffer for 4 hours; for formation of GSH adducts: following incubations. Here is the method:
The test compound (10 μM in DMSO) was incubated with L-glutathione (50 mM, prepared in 100 mM potassium phosphate buffer) at 37° C. for 4 hours and then analyzed by HPLC-UV/MS/MS without work-up. Thermo Accela HPLC and Velos Pro Orbitrap Elite (S/N: SN05189B) operating in positive mode with a source voltage of 3.5 kV with data dependant processing. HPLC with a Phenomenox Kinetex C18, 1.7 μM, 2.1×100 mm. column (P/N: 00D-4475-AN), 5% acetonitrile/95% 0.1% formic acid for 0.5 min then a 7.0 min linear gradient to 40% acetonitrile/60% 0.1% formic acid, 400 μL/min., column temperature 45° C. Product assignments were based on high resolution mass spectrometer fragmentation.

In data set [12] the target is P-glycoprotein (MDR1) (Homo sapiens (Human), UniProt P08183). As to the kind of experiment: Pgp Liability MDR1 Er. The following applies: dog; MDR1-transfected MDCK cell line; ratio of permeability, Papp BA/AB. It is filed as in vitro ADME.
Chain of P-glycoprotein (MDR1) (P08183 whole entry): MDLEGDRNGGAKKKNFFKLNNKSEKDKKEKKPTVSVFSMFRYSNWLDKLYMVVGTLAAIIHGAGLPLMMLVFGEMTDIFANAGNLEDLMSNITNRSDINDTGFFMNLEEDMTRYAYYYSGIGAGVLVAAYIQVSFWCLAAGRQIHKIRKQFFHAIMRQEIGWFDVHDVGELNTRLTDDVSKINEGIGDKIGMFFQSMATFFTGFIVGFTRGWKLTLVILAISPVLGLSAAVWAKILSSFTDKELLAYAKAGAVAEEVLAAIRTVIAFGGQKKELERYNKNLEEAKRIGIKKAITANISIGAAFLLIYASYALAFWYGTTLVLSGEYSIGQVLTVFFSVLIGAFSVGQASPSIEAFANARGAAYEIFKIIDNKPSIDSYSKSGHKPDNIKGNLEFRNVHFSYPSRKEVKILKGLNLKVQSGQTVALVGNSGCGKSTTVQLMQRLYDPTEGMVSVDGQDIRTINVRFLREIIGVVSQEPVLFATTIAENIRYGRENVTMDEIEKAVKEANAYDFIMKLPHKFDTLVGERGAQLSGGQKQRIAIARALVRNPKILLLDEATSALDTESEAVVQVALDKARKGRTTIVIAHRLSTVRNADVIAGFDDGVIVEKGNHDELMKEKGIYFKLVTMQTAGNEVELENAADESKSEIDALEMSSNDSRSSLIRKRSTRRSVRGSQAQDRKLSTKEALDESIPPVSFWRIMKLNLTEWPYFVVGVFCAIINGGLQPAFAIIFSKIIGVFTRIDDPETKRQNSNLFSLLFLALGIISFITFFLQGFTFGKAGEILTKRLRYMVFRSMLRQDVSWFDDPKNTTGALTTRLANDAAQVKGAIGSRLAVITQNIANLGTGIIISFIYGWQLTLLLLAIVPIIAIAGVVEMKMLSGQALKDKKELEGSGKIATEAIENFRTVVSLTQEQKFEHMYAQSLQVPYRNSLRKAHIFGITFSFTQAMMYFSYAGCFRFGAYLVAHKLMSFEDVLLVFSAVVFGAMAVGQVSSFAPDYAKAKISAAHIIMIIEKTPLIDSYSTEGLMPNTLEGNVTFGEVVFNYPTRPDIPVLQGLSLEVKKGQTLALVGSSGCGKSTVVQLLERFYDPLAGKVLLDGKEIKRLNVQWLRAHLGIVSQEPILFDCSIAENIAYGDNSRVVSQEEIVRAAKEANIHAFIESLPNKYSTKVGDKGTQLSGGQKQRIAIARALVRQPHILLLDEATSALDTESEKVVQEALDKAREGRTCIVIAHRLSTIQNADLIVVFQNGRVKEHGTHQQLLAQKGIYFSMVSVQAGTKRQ
Source text: as §1

The mark [13] stands for this setting: Table 4, read-out: BACE1 Cell Free IC50.
The mark [14] stands for this setting: MDR1-transfected MDCK cell line, ratio of permeability.
[15] abbreviates: CHO cell transfected with hERG gene, automated Qpatch HT system.
[16] abbreviates: CHO cells transfected with hERG.
The mark [17] stands for this setting: geometric mean of 2-4 determinations unless otherwise indicated (b: ≧5; c: single determination), read-out: BACE1 Cell-free Assay IC50.

SMILES strings stand for the structures. Read-outs that look alike come from different tables or passages of the source. A value given as a limit tells only on which side of the number the result lay.

The term IC50 denotes the concentration that inhibits the measured activity by half. As usually defined, the pKa is the pH at which an ionisable group is half protonated. The CLint scaled is the capacity of the preparation to metabolise the compound, expressed as a volume cleared per time. A low value points to slow turnover. In general, efflux ratio refers to a quotient of directional permeabilities that is used to spot active efflux.

Chain of P-glycoprotein (MDR1-transfected MDCK cell line) (P08183 whole entry): as above
Chain of hERG channel (Q12809 whole entry): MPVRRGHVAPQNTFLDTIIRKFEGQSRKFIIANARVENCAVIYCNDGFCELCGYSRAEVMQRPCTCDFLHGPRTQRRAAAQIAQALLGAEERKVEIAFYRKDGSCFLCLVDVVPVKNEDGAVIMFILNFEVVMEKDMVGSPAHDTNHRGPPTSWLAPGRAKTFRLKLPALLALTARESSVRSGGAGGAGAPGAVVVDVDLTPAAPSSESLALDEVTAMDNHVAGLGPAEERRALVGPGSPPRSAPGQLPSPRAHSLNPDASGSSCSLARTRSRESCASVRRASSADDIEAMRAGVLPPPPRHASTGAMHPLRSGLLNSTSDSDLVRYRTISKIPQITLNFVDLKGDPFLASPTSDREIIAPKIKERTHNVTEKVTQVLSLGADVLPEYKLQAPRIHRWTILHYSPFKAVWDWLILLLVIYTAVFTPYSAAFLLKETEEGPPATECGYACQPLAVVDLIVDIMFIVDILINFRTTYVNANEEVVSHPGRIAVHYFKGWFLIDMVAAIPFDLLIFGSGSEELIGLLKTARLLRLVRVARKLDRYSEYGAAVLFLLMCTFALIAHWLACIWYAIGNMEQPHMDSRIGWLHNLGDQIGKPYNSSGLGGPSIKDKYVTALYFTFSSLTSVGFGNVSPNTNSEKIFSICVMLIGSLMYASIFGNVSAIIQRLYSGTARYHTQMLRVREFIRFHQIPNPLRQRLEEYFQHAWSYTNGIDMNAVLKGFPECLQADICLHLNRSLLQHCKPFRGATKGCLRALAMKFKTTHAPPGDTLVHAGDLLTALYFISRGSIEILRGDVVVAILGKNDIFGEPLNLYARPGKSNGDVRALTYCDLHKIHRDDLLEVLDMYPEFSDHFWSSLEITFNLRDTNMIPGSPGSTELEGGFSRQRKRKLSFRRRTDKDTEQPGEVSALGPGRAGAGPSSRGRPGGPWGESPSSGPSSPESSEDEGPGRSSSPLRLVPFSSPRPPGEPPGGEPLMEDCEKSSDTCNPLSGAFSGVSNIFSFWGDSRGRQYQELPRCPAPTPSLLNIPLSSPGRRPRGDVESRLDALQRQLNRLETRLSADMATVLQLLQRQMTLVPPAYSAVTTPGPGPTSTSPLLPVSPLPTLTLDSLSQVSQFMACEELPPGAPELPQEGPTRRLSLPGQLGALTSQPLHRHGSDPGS
Chain of CYP2D6 (P10635 whole entry): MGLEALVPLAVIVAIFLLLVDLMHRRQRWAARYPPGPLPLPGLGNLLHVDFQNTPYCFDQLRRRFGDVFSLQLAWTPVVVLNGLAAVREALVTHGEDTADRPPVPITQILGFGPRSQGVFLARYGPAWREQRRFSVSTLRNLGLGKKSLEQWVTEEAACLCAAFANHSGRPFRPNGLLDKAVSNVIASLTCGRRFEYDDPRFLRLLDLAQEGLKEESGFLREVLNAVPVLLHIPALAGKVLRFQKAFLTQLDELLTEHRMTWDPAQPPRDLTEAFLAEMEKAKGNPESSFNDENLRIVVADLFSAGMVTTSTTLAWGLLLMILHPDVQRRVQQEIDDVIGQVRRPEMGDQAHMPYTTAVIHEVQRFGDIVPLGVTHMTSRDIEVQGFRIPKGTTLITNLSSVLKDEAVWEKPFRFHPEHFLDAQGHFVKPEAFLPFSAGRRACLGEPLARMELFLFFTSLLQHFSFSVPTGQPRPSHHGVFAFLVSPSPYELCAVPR
Chain of human BACE2 (Q9Y5Z0 63-518): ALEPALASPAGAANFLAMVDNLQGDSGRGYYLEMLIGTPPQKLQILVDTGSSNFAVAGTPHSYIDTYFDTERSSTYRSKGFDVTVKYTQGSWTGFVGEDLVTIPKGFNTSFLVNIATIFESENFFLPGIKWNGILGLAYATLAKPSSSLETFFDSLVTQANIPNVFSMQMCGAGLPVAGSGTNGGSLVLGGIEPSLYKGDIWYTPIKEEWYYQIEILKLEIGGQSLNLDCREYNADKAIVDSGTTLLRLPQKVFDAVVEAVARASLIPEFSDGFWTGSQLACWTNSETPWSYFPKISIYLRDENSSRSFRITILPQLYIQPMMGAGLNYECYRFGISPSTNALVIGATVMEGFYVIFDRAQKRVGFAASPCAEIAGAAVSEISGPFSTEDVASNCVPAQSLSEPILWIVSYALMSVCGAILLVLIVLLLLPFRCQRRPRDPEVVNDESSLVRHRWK

Turning to `C[C@H]1C[C@H]2CSC(N)=N[C@@]2(c2cc(NC(=O)c3ccc(C#N)cn3)cs2)CO1` [Comparator 5], the “Aniline Structural Alert” value in data set [1] is given as “No”. Moreover, in [2], the “formation of GSH adducts” value was “formation of chemical adducts”.
Turning to `NC1=N[C@@]2(c3cc(NC(=O)c4ccc(OC(F)F)cn4)ccc3F)CO[C@@H](C(F)(F)F)C[C@H]2CS1` [Comparator 6, reference compound], the results for the IC50 in data set [3] (setting [13]) and in [4] were 6 nM and less than 1 nM, respectively. The “BACE2/BACE1 Binding Ratio” value in [5] was 1.0. The “HLM CLint” value in data set [6] was less than 12.8 mL/min/kg. Also, in [7] (setting [14]), the “Pgp liability MDR1 Er” value was 3.2. In addition, in data set [8], the pKa is on record as 7.7. In addition, the “Aniline Structural Alert” value in data set [1] is given as “Yes”.
Regarding `C[C@H]1C[C@H]2CSC(N)=N[C@@]2(c2cc(NC(=O)c3ccc(Cl)cn3)ccc2F)CO1` [Comparator 7, reference compound], the IC50 in [3] (setting [13]) is 1 nM; in data set [4], less than 1 nM; in [9] (setting [15]) it was 200 nM. In addition, in data set [5], the “BACE2/BACE1 Binding Ratio” value came to 1.0. Moreover, the “HLM CLint” value in data set [6] was 34.4 mL/min/kg^. Besides, in data set [7] (setting [14]), the “Pgp liability MDR1 Er” value was 3.03. This molecule came in with a pKa in data set [8] of 8.2. For the same molecule, the “Aniline Structural Alert” value in data set [1] was “Yes”.
In the case of `C[C@H]1C[C@H]2CSC(N)=N[C@@]2(c2nc(NC(=O)c3ccc(OC(F)F)cn3)cs2)CO1` [Example 1, N-{2-[(4aR,6S,8aR)-2-amino-6-methyl-4,4a,5,6-tetrahydropyrano[3,4-d][1,3]thiazin-8a(8H)-yl]-1,3-thiazol-4-yl}-5-(difluoromethoxy)pyridine-2-carboxamide], the IC50 in data set [4] (Homo sapiens) is 5 nM; in data set [10], more than 30000 nM; in [10] (human, microsomes, pH 7.4), more than 30000 nM; in data set [9] (setting [15]) it was 9900 nM; in data set [9] (setting [16]), more than 5000 nM. In addition, the “HLM CLint” value in [6] is less than 8 mL/min/kg. Besides, in data set [6], the CLint scaled is less than 8 mL/min/kg. The “Observed GSH adducts” value in [11] is “Negative”. Moreover, the “formation of GSH adducts” value in [11] is listed as “not detected”. For the same molecule, the “Pgp liability MDR1 Er” value in data set [7] (MDR1-transfected MDCK) is reported as less than 2.5. The pKa in data set [8] (read-out: pKa) stood at 6.8.
Take `C[C@H]1C[C@H]2CSC(N)=N[C@@]2(c2nc(NC(=O)c3cnc(OC(F)F)cn3)cs2)CO1` [Example 2, N-{2-[(4aR,6S,8aR)-2-amino-6-methyl-4,4a,5,6-tetrahydropyrano[3,4-d][1,3]thiazin-8a(8H)-yl]-1,3-thiazol-4-yl}-5-(difluoromethoxy)pyrazine-2-carboxamide]: the IC50 in data set [3] (setting [13]) was 73 nM; in data set [3] (setting [17]) it was 73 nM; in data set [4] (Homo sapiens), 7 nM; in data set [10] it was more than 30000 nM; in data set [10] (human, microsomes, pH 7.4), more than 30000 nM; in data set [9] (setting [15]), 23600 nM. The IC50 in [9] (setting [16]) is more than 5000 nM. Besides, in [6], the “HLM CLint” value is given as less than 8 mL/min/kg. Further, the CLint scaled in data set [6] is less than 8 mL/min/kg. The “Observed GSH adducts” value in data set [11] was “Negative”. Moreover, in data set [11], the “formation of GSH adducts” value is on record as “not detected”. Also, the efflux ratio in [12] is 1.8. Besides, in data set [7] (MDR1-transfected MDCK), the “Pgp liability MDR1 Er” value is given as less than 2.5. Moreover, the pKa in data set [8] (read-out: pKa) is 6.8. In addition, the “Aniline Structural Alert” value in data set [1] is “No”.
For the molecule `C[C@H]1C[C@H]2CSC(N)=N[C@@]2(c2nc(NC(=O)c3ccc(Cl)cn3)cs2)CO1` [Example 7, N-{2-[(4aR,6S,8aR)-2-amino-6-methyl-4,4a,5,6-tetrahydropyrano[3,4-d][1,3]thiazin-8a(8H)-yl]-1,3-thiazol-4-yl}-5-chloropyridine-2-carboxamide], the IC50 in [4] (Homo sapiens) is 4 nM; in [10], more than 30000 nM; in data set [10] (human, microsomes, pH 7.4), more than 30000 nM; in [9] (setting [15]), 9000 nM; in [9] (setting [16]), more than 5000 nM. Further, the “HLM CLint” value in data set [6] is less than 8 mL/min/kg. Moreover, the CLint scaled in [6] is less than 8 mL/min/kg. Moreover, in data set [11], the “Observed GSH adducts” value was “Negative”. In addition, the “formation of GSH adducts” value in data set [11] is reported as “not detected”. In addition, the “Pgp liability MDR1 Er” value in data set [7] (MDR1-transfected MDCK) is on record as less than 2.5. Moreover, the pKa in [8] (read-out: pKa) was 6.9. Further, the “Aniline Structural Alert” value in [1] is “No”.
On to `Cc1cc(OC(F)F)cnc1C(=O)Nc1csc([C@]23CO[C@@H](C)C[C@H]2CSC(N)=N3)n1` [Example 45, N-{2-[(4aR,6S,8aR)-2-amino-6-methyl-4,4a,5,6-tetrahydropyrano[3,4-d][1,3]thiazin-8a(8H)-yl]-1,3-thiazol-4-yl}-5-(difluoromethoxy)-3-methylpyridine-2-carboxamide], for which the IC50 is 23 nM in data set [3] (setting [13]); 23 nM in [3] (setting [17]); 3 nM in data set [4] (Homo sapiens); more than 30000 nM in data set [10]; more than 30000 nM in [10] (human, microsomes, pH 7.4). The “HLM CLint” value in data set [6] is less than 8 mL/min/kg. The CLint scaled in data set [6] was less than 8 mL/min/kg. Moreover, the “Observed GSH adducts” value in data set [11] is recorded as “Negative”. Besides, the “formation of GSH adducts” value in data set [11] is listed as “not detected”. Moreover, in [8] (read-out: pKa), the pKa was 6.9. In data set [1], the “Aniline Structural Alert” value was “No”.

Values taken from US9315520B2, “2-amino-6-methyl-4,4a,5,6-tetrahydropyrano[3,4-d][1,3]thiazin-8a(8H)-yl-1,3-thiazol-4-yl amides” (Pfizer Inc., priority 2014, dated 2016).
